{
  "source": "PubChem BioAssay (NCI)",
  "assay_in_all_cases": "NCI tumour cell line growth inhibition, 48 h",
  "key": {"786-0 renal": {"tested_on": "786-0 renal"}, "A498 renal": {"tested_on": "A498 renal"}, "HL-60(TB) leukemia": {"tested_on": "HL-60(TB) leukemia"}, "HOP-62 NSCLC": {"tested_on": "HOP-62 NSCLC"}, "MDA-MB-231 breast": {"tested_on": "MDA-MB-231 breast"}, "MDA-MB-435": {"tested_on": "MDA-MB-435"}, "NCI-H23 lung": {"tested_on": "NCI-H23 lung"}, "NCI-H522 lung": {"tested_on": "NCI-H522 lung"}, "SF-295 CNS": {"tested_on": "SF-295 CNS"}, "SF-539 CNS": {"tested_on": "SF-539 CNS"}},
  "note": "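Cultured in 96-well plates, cells were exposed to test compound for 48 hours across five concentrations. At the GI50, growth is halved. TGI is the concentration that stops growth completely.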",
  "data": [
    {"smiles": "CO/C=C/C(=O)c1cc2cnc3c(=N)cc(NC(=O)C(C)C)c([nH]1)c23", "values": [
      {"measurement": "GI50", "setting": "786-0 renal", "value": 98.1, "unit": "nM"},
      {"measurement": "TGI", "setting": "786-0 renal", "value": 695, "unit": "nM"},
      {"measurement": "GI50", "setting": "A498 renal", "value": 100, "unit": "nM"},
      {"measurement": "TGI", "setting": "A498 renal", "value": 602, "unit": "nM"},
      {"measurement": "GI50", "setting": "HL-60(TB) leukemia", "value": 32, "unit": "nM"},
      {"measurement": "TGI", "setting": "HL-60(TB) leukemia", "value": 295, "unit": "nM"},
      {"measurement": "GI50", "setting": "HOP-62 NSCLC", "value": 84.4, "unit": "nM"},
      {"measurement": "TGI", "setting": "HOP-62 NSCLC", "value": 1040, "unit": "nM"},
      {"measurement": "GI50", "setting": "MDA-MB-231 breast", "value": 88.3, "unit": "nM"},
      {"measurement": "TGI", "setting": "MDA-MB-231 breast", "value": 660, "unit": "nM"},
      {"measurement": "GI50", "setting": "MDA-MB-435", "value": 85.2, "unit": "nM"},
      {"measurement": "TGI", "setting": "MDA-MB-435", "value": 836, "unit": "nM"},
      {"measurement": "GI50", "setting": "NCI-H23 lung", "value": 43.2, "unit": "nM"},
      {"measurement": "TGI", "setting": "NCI-H23 lung", "value": 1830, "unit": "nM"},
      {"measurement": "GI50", "setting": "NCI-H522 lung", "value": 969, "unit": "nM"},
      {"measurement": "TGI", "setting": "NCI-H522 lung", "value": 11000, "unit": "nM"},
      {"measurement": "GI50", "setting": "SF-295 CNS", "value": 105, "unit": "nM"},
      {"measurement": "TGI", "setting": "SF-295 CNS", "value": 771, "unit": "nM"},
      {"measurement": "GI50", "setting": "SF-539 CNS", "value": 59.6, "unit": "nM"},
      {"measurement": "TGI", "setting": "SF-539 CNS", "value": 333, "unit": "nM"}
    ]},
    {"smiles": "NC1=CC(=O)c2cccnc2C1=O", "values": [
      {"measurement": "GI50", "setting": "786-0 renal", "value": 1780, "unit": "nM"},
      {"measurement": "TGI", "setting": "786-0 renal", "value": 3750, "unit": "nM"},
      {"measurement": "GI50", "setting": "A498 renal", "value": 10100, "unit": "nM"},
      {"measurement": "TGI", "setting": "A498 renal", "value": 23300, "unit": "nM"},
      {"measurement": "GI50", "setting": "HL-60(TB) leukemia", "value": 1050, "unit": "nM"},
      {"measurement": "TGI", "setting": "HL-60(TB) leukemia", "value": 3990, "unit": "nM"},
      {"measurement": "GI50", "setting": "HOP-62 NSCLC", "value": 1320, "unit": "nM"},
      {"measurement": "TGI", "setting": "HOP-62 NSCLC", "value": 2770, "unit": "nM"},
      {"measurement": "GI50", "setting": "MDA-MB-231 breast", "value": 1900, "unit": "nM"},
      {"measurement": "TGI", "setting": "MDA-MB-231 breast", "value": 4780, "unit": "nM"},
      {"measurement": "GI50", "setting": "MDA-MB-435", "value": 833, "unit": "nM"},
      {"measurement": "TGI", "setting": "MDA-MB-435", "value": 2120, "unit": "nM"},
      {"measurement": "GI50", "setting": "NCI-H23 lung", "value": 1340, "unit": "nM"},
      {"measurement": "TGI", "setting": "NCI-H23 lung", "value": 4140, "unit": "nM"},
      {"measurement": "GI50", "setting": "NCI-H522 lung", "value": 533, "unit": "nM"},
      {"measurement": "TGI", "setting": "NCI-H522 lung", "value": 2170, "unit": "nM"},
      {"measurement": "GI50", "setting": "SF-295 CNS", "value": 1620, "unit": "nM"},
      {"measurement": "TGI", "setting": "SF-295 CNS", "value": 3100, "unit": "nM"},
      {"measurement": "GI50", "setting": "SF-539 CNS", "value": 1620, "unit": "nM"},
      {"measurement": "TGI", "setting": "SF-539 CNS", "value": 3000, "unit": "nM"}
    ]},
    {"smiles": "CC(C)(C)N1CCC1CN", "note": "(stereo not given)", "values": [
      {"measurement": "GI50", "setting": "786-0 renal", "value": "> 100000", "unit": "nM"},
      {"measurement": "TGI", "setting": "786-0 renal", "value": "> 100000", "unit": "nM"},
      {"measurement": "GI50", "setting": "A498 renal", "value": "> 100000", "unit": "nM"},
      {"measurement": "TGI", "setting": "A498 renal", "value": "> 100000", "unit": "nM"},
      {"measurement": "GI50", "setting": "HL-60(TB) leukemia", "value": "> 100000", "unit": "nM"},
      {"measurement": "TGI", "setting": "HL-60(TB) leukemia", "value": "> 100000", "unit": "nM"},
      {"measurement": "GI50", "setting": "HOP-62 NSCLC", "value": "> 100000", "unit": "nM"},
      {"measurement": "TGI", "setting": "HOP-62 NSCLC", "value": "> 100000", "unit": "nM"},
      {"measurement": "GI50", "setting": "MDA-MB-231 breast", "value": "> 100000", "unit": "nM"},
      {"measurement": "TGI", "setting": "MDA-MB-231 breast", "value": "> 100000", "unit": "nM"},
      {"measurement": "GI50", "setting": "MDA-MB-435", "value": "> 100000", "unit": "nM"},
      {"measurement": "TGI", "setting": "MDA-MB-435", "value": "> 100000", "unit": "nM"},
      {"measurement": "GI50", "setting": "NCI-H23 lung", "value": "> 100000", "unit": "nM"},
      {"measurement": "TGI", "setting": "NCI-H23 lung", "value": "> 100000", "unit": "nM"},
      {"measurement": "GI50", "setting": "NCI-H522 lung", "value": "> 100000", "unit": "nM"},
      {"measurement": "TGI", "setting": "NCI-H522 lung", "value": "> 100000", "unit": "nM"},
      {"measurement": "GI50", "setting": "SF-295 CNS", "value": "> 100000", "unit": "nM"},
      {"measurement": "TGI", "setting": "SF-295 CNS", "value": "> 100000", "unit": "nM"},
      {"measurement": "GI50", "setting": "SF-539 CNS", "value": "> 100000", "unit": "nM"},
      {"measurement": "TGI", "setting": "SF-539 CNS", "value": "> 100000", "unit": "nM"}
    ]},
    {"smiles": "COc1ccc(/C=C(/C(=O)N2CCN(c3ccccc3)CC2)c2cc(OC)c(OC)c(OC)c2)cc1N", "values": [
      {"measurement": "GI50", "setting": "786-0 renal", "value": 766, "unit": "nM"},
      {"measurement": "TGI", "setting": "786-0 renal", "value": "> 100000", "unit": "nM"},
      {"measurement": "GI50", "setting": "A498 renal", "value": 142, "unit": "nM"},
      {"measurement": "TGI", "setting": "A498 renal", "value": 778, "unit": "nM"},
      {"measurement": "GI50", "setting": "HL-60(TB) leukemia", "value": 241, "unit": "nM"},
      {"measurement": "TGI", "setting": "HL-60(TB) leukemia", "value": 596, "unit": "nM"},
      {"measurement": "GI50", "setting": "HOP-62 NSCLC", "value": 429, "unit": "nM"},
      {"measurement": "TGI", "setting": "HOP-62 NSCLC", "value": "> 100000", "unit": "nM"},
      {"measurement": "GI50", "setting": "MDA-MB-231 breast", "value": 411, "unit": "nM"},
      {"measurement": "TGI", "setting": "MDA-MB-231 breast", "value": 24400, "unit": "nM"},
      {"measurement": "GI50", "setting": "MDA-MB-435", "value": 138, "unit": "nM"},
      {"measurement": "TGI", "setting": "MDA-MB-435", "value": 419, "unit": "nM"},
      {"measurement": "GI50", "setting": "NCI-H23 lung", "value": 2180, "unit": "nM"},
      {"measurement": "TGI", "setting": "NCI-H23 lung", "value": "> 100000", "unit": "nM"},
      {"measurement": "GI50", "setting": "NCI-H522 lung", "value": 242, "unit": "nM"},
      {"measurement": "TGI", "setting": "NCI-H522 lung", "value": 910, "unit": "nM"},
      {"measurement": "GI50", "setting": "SF-295 CNS", "value": 342, "unit": "nM"},
      {"measurement": "TGI", "setting": "SF-295 CNS", "value": "> 100000", "unit": "nM"},
      {"measurement": "GI50", "setting": "SF-539 CNS", "value": 223, "unit": "nM"},
      {"measurement": "TGI", "setting": "SF-539 CNS", "value": 797, "unit": "nM"}
    ]},
    {"smiles": "CSc1ccc(-c2ccccc(=O)c2O)cc1", "values": [
      {"measurement": "GI50", "setting": "786-0 renal", "value": 447, "unit": "nM"},
      {"measurement": "TGI", "setting": "786-0 renal", "value": 12600, "unit": "nM"},
      {"measurement": "GI50", "setting": "A498 renal", "value": 2710, "unit": "nM"},
      {"measurement": "TGI", "setting": "A498 renal", "value": 19000, "unit": "nM"},
      {"measurement": "GI50", "setting": "HL-60(TB) leukemia", "value": 283, "unit": "nM"},
      {"measurement": "TGI", "setting": "HL-60(TB) leukemia", "value": 1550, "unit": "nM"},
      {"measurement": "GI50", "setting": "HOP-62 NSCLC", "value": 540, "unit": "nM"},
      {"measurement": "TGI", "setting": "HOP-62 NSCLC", "value": 50900, "unit": "nM"},
      {"measurement": "GI50", "setting": "MDA-MB-231 breast", "value": 603, "unit": "nM"},
      {"measurement": "TGI", "setting": "MDA-MB-231 breast", "value": "> 100000", "unit": "nM"},
      {"measurement": "GI50", "setting": "MDA-MB-435", "value": 646, "unit": "nM"},
      {"measurement": "TGI", "setting": "MDA-MB-435", "value": "> 100000", "unit": "nM"},
      {"measurement": "GI50", "setting": "NCI-H23 lung", "value": 688, "unit": "nM"},
      {"measurement": "TGI", "setting": "NCI-H23 lung", "value": 28300, "unit": "nM"},
      {"measurement": "GI50", "setting": "NCI-H522 lung", "value": 470, "unit": "nM"},
      {"measurement": "TGI", "setting": "NCI-H522 lung", "value": 55900, "unit": "nM"},
      {"measurement": "GI50", "setting": "SF-295 CNS", "value": 437, "unit": "nM"},
      {"measurement": "TGI", "setting": "SF-295 CNS", "value": 18300, "unit": "nM"},
      {"measurement": "GI50", "setting": "SF-539 CNS", "value": 394, "unit": "nM"},
      {"measurement": "TGI", "setting": "SF-539 CNS", "value": 11600, "unit": "nM"}
    ]}
  ]
}
